According to US11968999B2, “Use and composition of buffer formulation with multiple pH values and protein digestion enhancer” (ECO-GEO BIO-TECHNOLOGY COMPANY LIMITED, priority 2018, dated 2024):

Columns and labels:
[1] = biological target: trypsin (Homo sapiens, UniProt P07477); assay: Proteolysis of casein by trypsin with ascorbic acid in citric acid buffer (OPA fluorescence, TAAE); format: biochemical
Method: (§1) The four test tubes were respectively incubated at 37° C. for 10 minutes, 1 hour, 2 hours and 3 hours, an equal amount of 10% trichloroacetic acid (TCA) solution was added into each test tube and mixed with the control solution uniformly, and the test tubes were held at room temperature for 10 minutes and then centrifuged at 3000 rpm for 10 minutes. 20 μL of the supernatants taken from the above-mentioned test tubes at four time points were put into four new test tubes. 2.4 mL o-phthalaldehyde (OPA) reagent was added into each new test tube and held for 2 minutes, and the fluorescence intensity was measured at EX. 340 nm and EM. 455 nm by a fluorescence spectrometer. […] The four test tubes were respectively incubated at 37° C. for 10 minutes, 1 hour, 2 hours and 3 hours, an equal amount of 10% TCA solution was added into each test tube and mixed with the experimental solution uniformly, and the test tubes were held at room temperature for 10 minutes and then centrifuged at 3000 rpm for 10 minutes. 20 μL of the supernatants taken from the above-mentioned test tubes at four time points were put into four new test tubes. 2.4 mL OPA reagent was added into each new test tube and held for 2 minutes, and the fluorescence intensity was measured at EX. 340 nm and EM. 455 nm by the fluorescence spectrometer. […] The four test tubes were respectively incubated at 37° C. for 10 minutes, 1 hour, 2 hours and 3 hours, an equal amount of 10% TCA solution was added into each test tube and mixed with the experimental solution uniformly, and the test tubes were held at room temperature for 10 minutes and then centrifuged at 3000 rpm for 10 minutes. 20 μL of the supernatants taken from the above-mentioned test tubes at four time points were put into four new test tubes. 2.4 mL OPA reagent was added into each new test tube and held for 2 minutes, and the fluorescence intensity was measured at EX. 340 nm and EM. 455 nm by the fluorescence spectrometer. […] The four test tubes were respectively incubated at 37° C. for 10 minutes, 1 hour, 2 hours and 3 hours, an equal amount of 10% TCA solution was added into each test tube and mixed with the experimental solution uniformly, and the test tubes were held at room temperature for 10 minutes and then centrifuged at 3000 rpm for 10 minutes. 20 μL of the supernatants taken from the above-mentioned test tubes at four time points were put into four new test tubes. 2.4 mL OPA reagent was added into each new test tube and held for 2 minutes, and the fluorescence intensity was measured at EX. 340 nm and EM. 455 nm by the fluorescence spectrometer. The obtained fluorescence intensity was calculated as the amount of tyrosine according to the tyrosine calibration line established in advance at the same pH value, and represented as TAAE (μg/mL). 2. […] The four test tubes were respectively incubated at 37° C. for 10 minutes, 1 hour, 2 hours and 3 hours, an equal amount of 10% TCA solution was added into each test tube and mixed with the control solution uniformly, and the test tubes were held at room temperature for 10 minutes and then centrifuged at 3000 rpm for 10 minutes. 20 μL of the supernatants taken from the above-mentioned test tubes at four time points were put into four new test tubes. 2.4 mL OPA reagent was added into each new test tube and held for 2 minutes, and the fluorescence intensity was measured at EX. 340 nm and EM. 455 nm by the fluorescence spectrometer. […] The four test tubes were respectively incubated at 37° C. for 10 minutes, 1 hour, 2 hours and 3 hours, an equal amount of 10% TCA solution was added into each test tube and mixed with the experimental solution uniformly, and the test tubes were held at room temperature for 10 minutes and then centrifuged at 3000 rpm for 10 minutes. 20 μL of the supernatants taken from the above-mentioned test tubes at four time points were put into four new test tubes. […]

[2] = environment where the pH is greater than 4; cited from earlier work
[3] = biological target: pepsin (Homo sapiens, UniProt P0DJD8); assay: Proteolysis of casein by pepsin with ascorbic acid in citric acid buffer (OPA fluorescence, TAAE); format: biochemical
Method: 1. […]
as §1

[4] = pH 5.0, 60 ppm ascorbic acid, 0.1 hr
[5] = pH 5.0, 60 ppm ascorbic acid, 1 hr
[6] = pH 5.0, 60 ppm ascorbic acid, 2 hr
[7] = pH 5.0, 60 ppm ascorbic acid, 3 hr
[8] = pH 5.0, 120 ppm ascorbic acid, 0.1 hr
[9] = pH 5.0, 120 ppm ascorbic acid, 1 hr
[10] = pH 5.0, 120 ppm ascorbic acid, 2 hr
[11] = pH 5.0, 120 ppm ascorbic acid, 3 hr
[12] = pH 5.0, 240 ppm ascorbic acid, 0.1 hr
[13] = pH 5.0, 240 ppm ascorbic acid, 1 hr
[14] = pH 5.0, 240 ppm ascorbic acid, 2 hr
[15] = pH 5.0, 240 ppm ascorbic acid, 3 hr
[16] = pH 6.0, 60 ppm ascorbic acid, 0.1 hr
[17] = pH 6.0, 60 ppm ascorbic acid, 1 hr
[18] = pH 6.0, 60 ppm ascorbic acid, 2 hr
[19] = pH 6.0, 60 ppm ascorbic acid, 3 hr
[20] = pH 6.0, 120 ppm ascorbic acid, 0.1 hr
[21] = pH 6.0, 120 ppm ascorbic acid, 1 hr
[22] = pH 6.0, 120 ppm ascorbic acid, 2 hr
[23] = pH 6.0, 120 ppm ascorbic acid, 3 hr
[24] = pH 6.0, 240 ppm ascorbic acid, 0.1 hr
[25] = pH 6.0, 240 ppm ascorbic acid, 1 hr
[26] = pH 6.0, 240 ppm ascorbic acid, 2 hr
[27] = pH 6.0, 240 ppm ascorbic acid, 3 hr
[28] = pH 6.0, groups containing ascorbic acid

Sequence of pepsin (P0DJD8 63-388): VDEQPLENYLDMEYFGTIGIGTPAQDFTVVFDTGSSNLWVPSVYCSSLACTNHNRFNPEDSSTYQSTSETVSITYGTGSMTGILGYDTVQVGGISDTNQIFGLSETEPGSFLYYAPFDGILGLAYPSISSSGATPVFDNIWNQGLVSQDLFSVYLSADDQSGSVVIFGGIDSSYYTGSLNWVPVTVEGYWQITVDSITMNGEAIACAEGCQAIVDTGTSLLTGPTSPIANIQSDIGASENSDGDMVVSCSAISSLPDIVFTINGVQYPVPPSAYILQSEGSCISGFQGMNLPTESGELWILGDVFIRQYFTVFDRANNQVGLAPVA

TAAE [1, 4]: 11.5 µg/mL
TAAE [1, 5]: 30.4 µg/mL
TAAE [1, 6]: 37.8 µg/mL
TAAE [1, 7]: 45.2 µg/mL
TAAE [1, 8]: 15.3 µg/mL
TAAE [1, 9]: 38.0 µg/mL
TAAE [1, 10]: 39.0 µg/mL
TAAE [1, 11]: 49.1 µg/mL
TAAE [1, 12]: 38.9 µg/mL
TAAE [1, 13]: 37.5 µg/mL
TAAE [1, 14]: 87.9 µg/mL
TAAE [1, 15]: 89.3 µg/mL
TAAE [1, 16]: 57.7 µg/mL
TAAE [1, 17]: 86.6 µg/mL
TAAE [1, 18]: 90.4 µg/mL
TAAE [1, 19]: 93.7 µg/mL
TAAE [1, 20]: 54.2 µg/mL
TAAE [1, 21]: 85.6 µg/mL
TAAE [1, 22]: 91.3 µg/mL
TAAE [1, 23]: 94.8 µg/mL
TAAE [1, 24]: 57.9 µg/mL
TAAE [1, 25]: 102.4 µg/mL
TAAE [1, 26]: 103.1 µg/mL
TAAE [1, 27]: 91.5 µg/mL
TAAE ([1]; pH 7.5, 60 ppm ascorbic acid, 0.1 hr): 82.6 µg/mL
TAAE ([1]; pH 7.5, 60 ppm ascorbic acid, 1 hr): 107.0 µg/mL
TAAE ([1]; pH 7.5, 60 ppm ascorbic acid, 2 hr): 103.8 µg/mL
TAAE ([1]; pH 7.5, 60 ppm ascorbic acid, 3 hr): 105.1 µg/mL
TAAE ([1]; pH 7.5, 120 ppm ascorbic acid, 0.1 hr): 78.4 µg/mL
TAAE ([1]; pH 7.5, 120 ppm ascorbic acid, 1 hr): 116.3 µg/mL
TAAE ([1]; pH 7.5, 120 ppm ascorbic acid, 2 hr): 107.3 µg/mL
TAAE ([1]; pH 7.5, 120 ppm ascorbic acid, 3 hr): 99.0 µg/mL
TAAE ([1]; pH 7.5, 240 ppm ascorbic acid, 0.1 hr): 60.4 µg/mL
TAAE ([1]; pH 7.5, 240 ppm ascorbic acid, 1 hr): 91.1 µg/mL
TAAE ([1]; pH 7.5, 240 ppm ascorbic acid, 2 hr): 100.5 µg/mL
TAAE ([1]; pH 7.5, 240 ppm ascorbic acid, 3 hr): 86.8 µg/mL
total amino acid equivalent (TAAE) ([3]; pH 2.0, 60 ppm ascorbic acid, 0.1 hr): 3.8 µg/mL
total amino acid equivalent (TAAE) ([3]; pH 2.0, 60 ppm ascorbic acid, 1 hr): 44.9 µg/mL
total amino acid equivalent (TAAE) ([3]; pH 2.0, 60 ppm ascorbic acid, 2 hr): 70.9 µg/mL
total amino acid equivalent (TAAE) ([3]; pH 2.0, 60 ppm ascorbic acid, 3 hr): 44.9 µg/mL
total amino acid equivalent (TAAE) ([3]; pH 2.0, 120 ppm ascorbic acid, 0.1 hr): 6.7 µg/mL
total amino acid equivalent (TAAE) ([3]; pH 2.0, 120 ppm ascorbic acid, 1 hr): 45.1 µg/mL
total amino acid equivalent (TAAE) ([3]; pH 2.0, 120 ppm ascorbic acid, 2 hr): 73.0 µg/mL
total amino acid equivalent (TAAE) ([3]; pH 2.0, 120 ppm ascorbic acid, 3 hr): 58.7 µg/mL
total amino acid equivalent (TAAE) ([3]; pH 2.0, 240 ppm ascorbic acid, 0.1 hr): 5.6 µg/mL
total amino acid equivalent (TAAE) ([3]; pH 2.0, 240 ppm ascorbic acid, 1 hr): 54.6 µg/mL
total amino acid equivalent (TAAE) ([3]; pH 2.0, 240 ppm ascorbic acid, 2 hr): 76.4 µg/mL
total amino acid equivalent (TAAE) ([3]; pH 2.0, 240 ppm ascorbic acid, 3 hr): 38.2 µg/mL
TAAE [3, 4]: 6.4 µg/mL
TAAE [3, 5]: 32.7 µg/mL
TAAE [3, 6]: 58.6 µg/mL
TAAE [3, 7]: 42.0 µg/mL
TAAE [3, 8]: 19.5 µg/mL
TAAE [3, 9]: 22.1 µg/mL
TAAE [3, 10]: 55.4 µg/mL
TAAE [3, 11]: 38.1 µg/mL
TAAE [3, 12]: 49.5 µg/mL
TAAE [3, 13]: 81.1 µg/mL
TAAE [3, 14]: 92.2 µg/mL
TAAE [3, 15]: 72.6 µg/mL
TAAE [3, 16]: 4.2 µg/mL
TAAE [3, 17]: 47.9 µg/mL
TAAE [3, 18]: 40.4 µg/mL
TAAE [3, 19]: 27.5 µg/mL
TAAE [3, 20]: -6.7 µg/mL
TAAE [3, 21]: 43.9 µg/mL
TAAE [3, 22]: 24.4 µg/mL
TAAE [3, 23]: 24.2 µg/mL
TAAE [3, 24]: 1.8 µg/mL
TAAE [3, 25]: 31.5 µg/mL
TAAE [3, 26]: 57.4 µg/mL
TAAE [3, 27]: 34.5 µg/mL
SMILES: O=C1O[C@H]([C@@H](O)CO)C(O)=C1O [ascorbic acid]
proteolytic efficiency of trypsin (in words) ([1]; pH 5.0, 240 ppm ascorbic acid): improves the proteolytic efficiency of the trypsin significantly
effect on proteolysis efficiency of trypsin (in words) ([1]; pH 5, pH 6 and pH 7.5, control group at pH 7.5 as comparison indicator): significant effect on the proteolysis efficiency of the trypsin
proteolytic efficiency of trypsin versus control group (in words) [1, 28]: better proteolytic efficiencies than the control group
hydrolysis efficiency of trypsin versus control group (in words) ([1]; pH 7.5, groups containing ascorbic acid): better hydrolysis efficiencies than the control group
stability (degradation) of ascorbic acid (in words) [2]: easily degraded
hydrolysis efficiency of pepsin versus control group (in words) ([3]; pH 2.0, groups containing ascorbic acid): better hydrolysis efficiencies than the control group
proteolytic efficiency of pepsin (in words) ([3]; pH 5.0, 240 ppm ascorbic acid): improves the proteolytic efficiency of the pepsin significantly
effect on proteolysis efficiency of pepsin (in words) ([3]; pH 5, pH 6 and pH 2, control group at pH 2 as comparison indicator): significant effect on the proteolysis efficiency of the pepsin
proteolytic efficiency of pepsin versus control group (in words) [3, 28]: better proteolytic efficiencies than the control group
